“Also recorded” adds a separate entry of the source. Where two headings read alike, the source gives them in different places.
Columns and labels:
HCC1954 cells = assay: Antiproliferation assay (Cell-titer Glo, 72 h); type: cell-based; details: Homo sapiens, 72 h, means and standard deviations from three independent assays, read-out: HCC1954 (GI50/μM)
Experimental: (§1) Breast-cancer cell lines (SK-Br3, HCC-1954) were purchased from Korea Cell Line Bank (Seoul, Korea) and were cultured in RPMI medium supplemented with 10% FBS and penicillin/streptomycin (Welgene, Seoul, Korea). All cell lines were maintained at 37 °C in a cell incubator in the presence of 5% CO2.
(§2) Breast-cancer cells in culture media (100 μL volume/well, 5000 SK-Br3 cells/well, 1000 HCC-1954 cells/well) were seeded in tissue culture-treated 96-well plates, and incubated at a cell incubator for 24 h. Serially diluted compounds (3-fold, 10 point from 10 mM, duplicated) were pre-plated and 500 nL of compound solutions were pin-transferred to the cells in the assay plates using pintool system (JANUS liquid handler, PerkinElmer, Waltham, MA, USA) and incubated at a cell incubator for 72 h. Cell-titer Glo^TM reagent (50 μL, Promega Corp., Madison, WI, USA) was added to each well, and the luminescence signal was read using an Envision^TM plate reader (PerkinElmer, Waltham, MA, USA). The titration curve fitting and IC50 values were generated using Prism 7.0 s/w (GraphPad, San Diego, CA, USA).

SK-Br3 cells = assay: Antiproliferation assay (Cell-titer Glo, 72 h); type: cell-based; details: Homo sapiens, SK-BR-3; 72 h; means and standard deviations from three independent assays; read-out: SK-Br3 (GI50/μM)
Experimental: as §1, §2

CDK12/CyclinK = CDK12/CyclinK (Homo sapiens, UniProt Q9NYV4); assay: In vitro CDK12/cyclinK kinase assay; type: biochemical; parameters: purchased Reaction Biology Corp. (CRO that ran the assay)
Sequence of CDK12/CyclinK (Q9NYV4 whole entry): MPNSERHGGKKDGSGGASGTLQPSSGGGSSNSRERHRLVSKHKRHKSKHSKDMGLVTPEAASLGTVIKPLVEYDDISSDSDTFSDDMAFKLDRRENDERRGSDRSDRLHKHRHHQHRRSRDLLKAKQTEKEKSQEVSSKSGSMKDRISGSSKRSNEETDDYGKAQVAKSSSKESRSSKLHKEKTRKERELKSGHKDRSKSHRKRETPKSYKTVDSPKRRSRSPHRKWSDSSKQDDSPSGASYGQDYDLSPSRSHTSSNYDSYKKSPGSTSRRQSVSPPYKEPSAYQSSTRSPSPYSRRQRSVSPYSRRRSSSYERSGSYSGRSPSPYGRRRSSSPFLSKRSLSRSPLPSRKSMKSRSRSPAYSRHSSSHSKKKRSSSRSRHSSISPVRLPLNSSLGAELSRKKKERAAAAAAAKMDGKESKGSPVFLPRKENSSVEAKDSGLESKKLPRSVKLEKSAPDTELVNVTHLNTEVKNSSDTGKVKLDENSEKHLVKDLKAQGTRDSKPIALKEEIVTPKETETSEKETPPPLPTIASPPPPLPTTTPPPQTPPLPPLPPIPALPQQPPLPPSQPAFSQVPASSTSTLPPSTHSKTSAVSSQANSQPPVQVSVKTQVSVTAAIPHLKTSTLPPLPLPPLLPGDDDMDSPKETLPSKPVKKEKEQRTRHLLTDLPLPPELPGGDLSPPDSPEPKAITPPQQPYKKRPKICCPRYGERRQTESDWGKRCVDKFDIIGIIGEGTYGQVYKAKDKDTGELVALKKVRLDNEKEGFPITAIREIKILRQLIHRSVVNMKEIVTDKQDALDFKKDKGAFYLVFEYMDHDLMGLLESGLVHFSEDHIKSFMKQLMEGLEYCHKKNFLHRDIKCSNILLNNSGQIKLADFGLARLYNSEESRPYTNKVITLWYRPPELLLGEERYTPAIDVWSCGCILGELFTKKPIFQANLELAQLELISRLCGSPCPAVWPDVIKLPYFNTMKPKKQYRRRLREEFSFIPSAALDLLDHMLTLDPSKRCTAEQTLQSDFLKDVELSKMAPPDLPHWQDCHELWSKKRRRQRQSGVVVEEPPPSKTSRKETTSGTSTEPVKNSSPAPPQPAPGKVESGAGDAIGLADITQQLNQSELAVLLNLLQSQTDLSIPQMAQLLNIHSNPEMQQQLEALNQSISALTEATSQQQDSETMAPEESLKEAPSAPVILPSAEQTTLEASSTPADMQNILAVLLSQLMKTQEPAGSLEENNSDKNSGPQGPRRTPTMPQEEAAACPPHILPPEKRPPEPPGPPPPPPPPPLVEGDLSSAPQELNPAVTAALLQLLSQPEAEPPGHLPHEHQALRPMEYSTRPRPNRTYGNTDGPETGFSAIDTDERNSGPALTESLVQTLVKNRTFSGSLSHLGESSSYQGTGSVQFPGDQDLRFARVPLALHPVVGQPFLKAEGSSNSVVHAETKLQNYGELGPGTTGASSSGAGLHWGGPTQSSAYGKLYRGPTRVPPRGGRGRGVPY
Sequence of CDK12/CyclinK (O75909 whole entry partner): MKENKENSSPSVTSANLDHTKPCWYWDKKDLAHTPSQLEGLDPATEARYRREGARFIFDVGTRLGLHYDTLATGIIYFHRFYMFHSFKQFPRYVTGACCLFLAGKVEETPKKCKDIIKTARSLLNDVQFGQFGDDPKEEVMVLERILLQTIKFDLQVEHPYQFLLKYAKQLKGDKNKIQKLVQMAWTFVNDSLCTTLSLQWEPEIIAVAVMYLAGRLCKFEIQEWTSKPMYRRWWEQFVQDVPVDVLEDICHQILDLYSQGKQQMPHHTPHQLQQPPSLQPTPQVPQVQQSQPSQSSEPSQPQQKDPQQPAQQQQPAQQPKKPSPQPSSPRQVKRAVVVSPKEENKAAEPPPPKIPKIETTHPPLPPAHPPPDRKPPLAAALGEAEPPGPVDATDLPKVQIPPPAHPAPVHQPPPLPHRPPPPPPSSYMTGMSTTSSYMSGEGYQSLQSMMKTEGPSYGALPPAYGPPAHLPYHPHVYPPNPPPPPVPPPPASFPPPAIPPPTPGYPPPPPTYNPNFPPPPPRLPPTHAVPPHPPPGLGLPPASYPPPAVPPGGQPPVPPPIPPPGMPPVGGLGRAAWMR
Experimental: In vitro CDK12/cyclinK assays for all compounds and in vitro kinome-wide inhibition profiling of 30d at 10 μM were performed by a CRO company (Reaction Biology Corp., San Diego, CA, USA).

cyclinK = assay: Western blot of cyclinK in SK-Br3 cells; type: cell-based, human; details: SK-Br3 cells, 0.2, 1 μM, 2 h
Experimental: (§3) The proteins were transferred to nitrocellulose membrane (Gelman Sciences, Ann Arbor, MI, USA) by electroblotting. The membranes were blocked with 5% non-fat dry milk (MB Cell, Seoul, Korea), incubated with primary antibodies for overnight at 4 °C. After the washing steps were performed with TBST solution, the membranes were incubated with HRP-conjugated secondary antibodies for 1 h at rt. After the secondary washing steps using TBST solution, protein bands on the membranes were visualized using enhanced chemiluminescence ECL detection reagent (Biorad Laboratories, Hercules, CA, USA).

Pol II p-CTD (Ser2) = assay: Western blot of Pol II p-CTD (Ser2) in SK-Br3 cells; type: cell-based, human; details: SK-Br3 cells, 0.2, 1 μM, 2 h
Excerpt: For Western blot analysis, the following antibodies were used: anti-Pol II CTD (2629S, Cell Signaling Technology, Danvers, MA, USA), anti-Pol II p-CTD (Ser2) (13499S, Cell Signaling Technology), anti-cyclinK (A301-939A-M, Bethyl Laboratories), anti-IRS1 (3407S, Cell Signaling Technology), anti-WNT1 (SC-514531, Santa Cruz Biotechnology, Dallas, TX, USA), anti-β-actin (MAB1501R, Millipore, Burlington, MA, USA), and horseradish peroxidase (HRP)-conjugated secondary antibodies (anti-mouse GTX213112-01; anti-rabbit GTX213110-01) (Genetex, Irvine, CA, USA).
as §3, with “Cells were lysed with lysis buffer containing 50 mM Tris pH 7.4, 150 mM NaCl, 1 mM EDTA, 1% NP-40, and 0.25% sodium deoxycholate supplemented with protease-inhibitor and phosphatase-inhibitor cocktails. The lysate samples (25 μg/lane) were loaded onto 6–12% sodium dodecyl sulfate polyacrylamide gel and separated by electrophoresis (SDS-PAGE). The proteins” for “The proteins”

[1] = In vitro liver microsomal stability; type: in vitro ADME; details: liver microsomes, pH 7.4, 30 m at 37 °C with NADPH regeneration system
Experimental: Each compound (final 1 μM, duplicated) was added to each 0.1 M PBS solution (pH 7.4) containing liver microsome of three different species (human, dog, mouse). After a brief (5 m) incubation at 37 °C, the NADPH regeneration system (Promega Corp., Madison, WI, USA) was added, then the mixture was incubated at 37 °C for 30 m. The reaction was terminated by adding acetonitrile containing an internal standard (chlorpropamide), then the mixture was centrifuged at 15,000 rpm, 4 °C for 5 m. The supernatant solution was injected to LC/MS/MS system (TSQ Vantage Triple-Stage Quadrupole Mass Spectrometer, ThermoFisher Scientific, Waltham, MA, USA). The remaining substrates were analyzed with Xcalibur 4.4 s/w using an MRM (multiple reaction monitoring) quantitation mode.

CYP2D6 = CYP2D6 (Homo sapiens, UniProt P10635); assay: CYP inhibition; type: in vitro ADME
Sequence of CYP2D6 (P10635 whole entry): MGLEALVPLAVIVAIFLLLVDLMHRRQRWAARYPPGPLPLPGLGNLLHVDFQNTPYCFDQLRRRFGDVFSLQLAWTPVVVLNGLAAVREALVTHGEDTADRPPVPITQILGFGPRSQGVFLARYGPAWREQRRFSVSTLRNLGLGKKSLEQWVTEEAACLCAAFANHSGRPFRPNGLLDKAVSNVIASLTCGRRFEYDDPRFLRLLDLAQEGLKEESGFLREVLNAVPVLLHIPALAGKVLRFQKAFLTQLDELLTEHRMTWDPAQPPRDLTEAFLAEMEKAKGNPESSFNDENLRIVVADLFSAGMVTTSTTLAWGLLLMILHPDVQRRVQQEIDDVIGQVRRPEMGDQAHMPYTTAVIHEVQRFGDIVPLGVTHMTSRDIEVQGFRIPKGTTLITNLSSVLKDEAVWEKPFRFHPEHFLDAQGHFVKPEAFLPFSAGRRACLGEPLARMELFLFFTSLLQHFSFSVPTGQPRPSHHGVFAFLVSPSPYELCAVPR
Experimental: Table 6 In vitro liver metabolic stability and activity against CYPs of potent analogues. | column: CYP % Activity at 10 μM / 2D6

CYP1A2 = biological target: T1, CYP1A2 (Homo sapiens, UniProt P05177); assay: CYP inhibition; type: in vitro ADME
T1 sequence (P05177 1-516): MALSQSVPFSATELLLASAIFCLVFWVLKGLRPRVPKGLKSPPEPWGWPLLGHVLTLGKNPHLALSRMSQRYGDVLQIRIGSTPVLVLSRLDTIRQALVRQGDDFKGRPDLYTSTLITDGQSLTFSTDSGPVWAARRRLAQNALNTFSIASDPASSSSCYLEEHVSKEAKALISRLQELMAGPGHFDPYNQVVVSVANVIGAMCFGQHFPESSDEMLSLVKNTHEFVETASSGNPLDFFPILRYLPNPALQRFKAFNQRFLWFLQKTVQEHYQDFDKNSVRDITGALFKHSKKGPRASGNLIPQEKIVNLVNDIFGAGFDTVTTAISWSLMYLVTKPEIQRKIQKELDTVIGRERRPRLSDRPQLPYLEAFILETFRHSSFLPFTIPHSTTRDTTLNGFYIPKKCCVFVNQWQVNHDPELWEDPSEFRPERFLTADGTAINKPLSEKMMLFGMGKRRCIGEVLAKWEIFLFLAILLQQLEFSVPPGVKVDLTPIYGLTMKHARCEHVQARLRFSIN
Experimental: Table 6 In vitro liver metabolic stability and activity against CYPs of potent analogues. | column: CYP % Activity at 10 μM / 1A2

CYP2C9 = CYP2C9 (Homo sapiens, UniProt P11712); assay: CYP inhibition; type: in vitro ADME
Sequence of CYP2C9 (P11712 whole entry): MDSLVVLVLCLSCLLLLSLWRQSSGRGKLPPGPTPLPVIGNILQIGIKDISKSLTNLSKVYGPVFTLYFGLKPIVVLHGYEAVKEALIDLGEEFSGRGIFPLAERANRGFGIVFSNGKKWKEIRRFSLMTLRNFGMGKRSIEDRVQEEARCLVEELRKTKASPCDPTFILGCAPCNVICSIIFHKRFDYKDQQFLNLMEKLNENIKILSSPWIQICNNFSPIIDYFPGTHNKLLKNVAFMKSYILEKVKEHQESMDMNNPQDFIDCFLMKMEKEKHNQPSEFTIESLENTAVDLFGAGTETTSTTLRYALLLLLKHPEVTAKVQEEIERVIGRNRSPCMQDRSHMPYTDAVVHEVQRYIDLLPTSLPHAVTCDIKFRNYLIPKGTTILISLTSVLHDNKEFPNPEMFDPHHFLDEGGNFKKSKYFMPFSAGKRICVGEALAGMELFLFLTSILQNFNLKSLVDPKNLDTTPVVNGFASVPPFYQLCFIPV
Experimental: Table 6 In vitro liver metabolic stability and activity against CYPs of potent analogues. | column: CYP % Activity at 10 μM / 2C9

CYP2C19 = CYP2C19 (Homo sapiens, UniProt P33261); assay: CYP inhibition; type: in vitro ADME
Sequence of CYP2C19 (P33261 whole entry): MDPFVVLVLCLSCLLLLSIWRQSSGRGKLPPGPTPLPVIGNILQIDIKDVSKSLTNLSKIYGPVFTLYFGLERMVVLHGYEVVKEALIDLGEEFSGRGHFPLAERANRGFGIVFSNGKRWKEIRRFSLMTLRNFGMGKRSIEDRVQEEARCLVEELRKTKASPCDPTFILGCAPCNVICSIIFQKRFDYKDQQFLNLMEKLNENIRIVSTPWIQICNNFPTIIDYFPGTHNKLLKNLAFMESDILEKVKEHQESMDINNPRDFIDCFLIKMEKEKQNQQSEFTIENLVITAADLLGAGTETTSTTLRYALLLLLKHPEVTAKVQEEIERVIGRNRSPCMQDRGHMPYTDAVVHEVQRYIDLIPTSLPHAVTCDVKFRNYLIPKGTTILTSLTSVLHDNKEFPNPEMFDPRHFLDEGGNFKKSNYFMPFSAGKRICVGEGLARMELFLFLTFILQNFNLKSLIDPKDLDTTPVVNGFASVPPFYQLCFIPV
Experimental: Table 6 In vitro liver metabolic stability and activity against CYPs of potent analogues. | column: CYP % Activity at 10 μM / 2C19

CYP3A4 = CYP3A4 (Homo sapiens, UniProt P08684); assay: CYP inhibition; type: in vitro ADME
Sequence of CYP3A4 (P08684 whole entry): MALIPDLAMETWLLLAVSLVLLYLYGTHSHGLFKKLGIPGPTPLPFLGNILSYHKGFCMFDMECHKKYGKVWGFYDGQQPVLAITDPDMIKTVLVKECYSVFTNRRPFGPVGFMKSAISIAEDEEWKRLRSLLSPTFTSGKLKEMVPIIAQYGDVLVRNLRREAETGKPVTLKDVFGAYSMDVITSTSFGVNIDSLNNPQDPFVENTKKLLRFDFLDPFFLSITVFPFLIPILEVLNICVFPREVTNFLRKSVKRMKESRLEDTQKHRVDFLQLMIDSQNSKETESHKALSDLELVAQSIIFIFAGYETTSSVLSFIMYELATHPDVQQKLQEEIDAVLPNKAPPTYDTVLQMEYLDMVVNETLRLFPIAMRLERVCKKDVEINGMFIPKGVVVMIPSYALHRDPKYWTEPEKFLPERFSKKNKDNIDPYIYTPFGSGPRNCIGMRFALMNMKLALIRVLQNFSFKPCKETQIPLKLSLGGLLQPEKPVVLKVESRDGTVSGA
Experimental: Table 6 In vitro liver metabolic stability and activity against CYPs of potent analogues. | column: CYP % Activity at 10 μM / 3A4

[2] = Tables 1-4, read-out: CDK12/CyclinK (IC50/μM)
[3] = Table 5, means and standard deviations from three independent assays, read-out: CDK12/CyclinK (IC50/μM)

| SMILES | GI50 (HCC1954 cells) | GI50 (SK-Br3 cells) | IC50 (CDK12/CyclinK; [2]) | IC50 (CDK12/CyclinK; read-out: CDK12/cyclinK IC50) | remaining at 30 min, 1 μM ([1]; dog) | remaining at 30 min, 1 μM ([1]; human) | remaining at 30 min, 1 μM ([1]; mouse) | CYP % Activity at 10 μM 2D6 (CYP2D6) | IC50 (CDK12/CyclinK; [3]) | CYP % Activity at 10 μM 1A2 (CYP1A2) | CYP % Activity at 10 μM 2C9 (CYP2C9) | CYP % Activity at 10 μM 2C19 (CYP2C19) | CYP % Activity at 10 μM 3A4 (CYP3A4) | cyclinK level (Western blot) (cyclinK) | PolII p-CTD (Ser2) level (Western blot) (Pol II p-CTD (Ser2)) |
| --- | --- | --- | --- | --- | --- | --- | --- | --- | --- | --- | --- | --- | --- | --- | --- |
| CC(C)n1cnc2c(NCc3ccc(-c4ccccn4)cn3)nc(-c3cccnc3)nc21 [Compound 17a, N-([2,3′-Bipyridin]-6′-ylmethyl)-9-isopropyl-2-(pyridin-3-yl)-9H-purin-6-amine] | 0.106 ± 0.011 µM | 0.151 ± 0.025 µM | 0.433 µM |  |  |  |  |  |  |  |  |  |  | most prominent cyclinK degradation; also recorded: downregulated Pol II p-CTD (Ser2) and cyclinK in a dose-dependent manner | downregulated Pol II p-CTD (Ser2) and cyclinK in a dose-dependent manner |
| CC(C)n1cnc2c(NCc3ccc(-c4cccnc4)cn3)nc(-c3cccnc3)nc21 [Compound 17b, N-([3,3′-Bipyridin]-6-ylmethyl)-9-isopropyl-2-(pyridin-3-yl)-9H-purin-6-amine] | 0.627 ± 0.128 µM | 0.862 ± 0.178 µM | 0.582 µM |  |  |  |  |  |  |  |  |  |  | downregulated Pol II p-CTD (Ser2) and cyclinK in a dose-dependent manner | downregulated Pol II p-CTD (Ser2) and cyclinK in a dose-dependent manner |
| Cc1cc(-c2ccc(CNc3nc(-c4cccnc4)nc4c3ncn4C(C)C)nc2)ccn1 [Compound 17e, 9-Isopropyl-N-((2′-methyl-[3,4′-bipyridin]-6-yl)methyl)-2-(pyridin-3-yl)-9H-purin-6-amine] | 0.23 ± 0.044 µM | 0.277 ± 0.038 µM | 0.481 µM |  |  |  |  |  |  |  |  |  |  | downregulated Pol II p-CTD (Ser2) and cyclinK in a dose-dependent manner | downregulated Pol II p-CTD (Ser2) and cyclinK in a dose-dependent manner |
| c1cncc(-c2ccc(CNc3nc(-c4cccnc4)nc4c3ncn4C3CCCC3)cn2)c1 [Compound 28b, N-([2,3′-Bipyridin]-5-ylmethyl)-9-cyclopentyl-2-(pyridin-3-yl)-9H-purin-6-amine] | 2.14 ± 0.176 µM | 2.6 ± 0.31 µM | 0.293 µM |  |  |  |  |  |  |  |  |  |  |  |  |
| CCn1cnc2c(NCc3ccc(-c4ccnc(C)c4)nc3)nc(-c3cnc(N)nc3)nc21 [Compound 30b, 2-(2-Aminopyrimidin-5-yl)-9-ethyl-N-((2′-methyl-[2,4′-bipyridin]-5-yl)methyl)-9H-purin-6-amine] | 0.08 ± 0.007 µM | 0.09 ± 0.008 µM |  | < 0.03 µM | 53.6% | 40.6% | 45% | 85.7% | 0.028 ± 0.008 µM | 74.9% | 82.9% | 75.4% | 72.4% |  |  |

The next lines start with results.

| GI50 (HCC1954 cells) | GI50 (SK-Br3 cells) | IC50 (CDK12/CyclinK; [2]) | IC50 (CDK12/CyclinK; read-out: CDK12/cyclinK IC50) | remaining at 30 min, 1 μM ([1]; dog) | remaining at 30 min, 1 μM ([1]; human) | remaining at 30 min, 1 μM ([1]; mouse) | CYP % Activity at 10 μM 2D6 (CYP2D6) | IC50 (CDK12/CyclinK; [3]) | CYP % Activity at 10 μM 1A2 (CYP1A2) | CYP % Activity at 10 μM 2C9 (CYP2C9) | CYP % Activity at 10 μM 2C19 (CYP2C19) | CYP % Activity at 10 μM 3A4 (CYP3A4) | SMILES | cyclinK level (Western blot) (cyclinK) | PolII p-CTD (Ser2) level (Western blot) (Pol II p-CTD (Ser2)) |
| --- | --- | --- | --- | --- | --- | --- | --- | --- | --- | --- | --- | --- | --- | --- | --- |
| 0.887 ± 0.04 µM | 0.741 ± 0.034 µM | 0.627 µM |  |  |  |  |  |  |  |  |  |  | CC(C)n1cnc2c(NCc3ccc(-c4ccncc4)cn3)nc(-c3cccnc3)nc21 [Compound 17d, N-([3,4′-Bipyridin]-6-ylmethyl)-9-isopropyl-2-(pyridin-3-yl)-9H-purin-6-amine] | downregulated Pol II p-CTD (Ser2) and cyclinK in a dose-dependent manner | downregulated Pol II p-CTD (Ser2) and cyclinK in a dose-dependent manner |
| 0.142 ± 0.014 µM | 0.215 ± 0.053 µM | 0.016 µM | < 0.03 µM |  |  |  |  |  |  |  |  |  | CCn1cnc2c(NCc3ccc(-c4cccnc4)nc3)nc(-c3cccnc3)nc21 [Compound 28a, N-([2,3′-Bipyridin]-5-ylmethyl)-9-ethyl-2-(pyridin-3-yl)-9H-purin-6-amine] |  |  |
| 0.104 ± 0.003 µM | 0.136 ± 0.016 µM |  | < 0.03 µM | 45.1% | 32.2% | 35.3% | 89.6% | 0.029 ± 0.015 µM | 59.3% | 73.0% | 76.8% | 38.9% | CCn1cnc2c(NCc3ccc(-c4ccnc(C)c4)nc3)nc(-c3ccc(N)nc3)nc21 [Compound 30a, 2-(6-Aminopyridin-3-yl)-9-ethyl-N-((2′-methyl-[2,4′-bipyridin]-5-yl)methyl)-9H-purin-6-amine] |  |  |
| 0.195 ± 0.05 µM | 0.03 ± 0.006 µM |  |  |  |  |  |  | 0.051 ± 0.007 µM |  |  |  |  | CN(C)C/C=C/C(=O)Nc1ccc(C(=O)N2CCC[C@@H](Nc3ncc(Cl)c(-c4c[nH]c5ccccc45)n3)C2)cc1 [THZ531, reference compound] |  |  |
